Paper PMC3677594, “Characterization of a novel Entamoeba histolytica strain from Burkina Faso, Africa, possessing a unique hexokinase-2 gene” (Parasite, 2011)
Where a chain is given by its changes, count along the chain named.

What was measured:
Type in all cases: biochemical
[1] = biological target: T1, HXK-1 (Entamoeba dispar, UniProt O09487); test: in-gel glucokinase activity stain after IEF or starch gel; conditions: ATP; G6PDH-coupled, NADPH-formazan read-out
T1 construct: gene hxk1; native full-length enzyme in freeze-thaw lysate, resolved by IEF or starch gel
T1 sequence (O09487 entry or part of it): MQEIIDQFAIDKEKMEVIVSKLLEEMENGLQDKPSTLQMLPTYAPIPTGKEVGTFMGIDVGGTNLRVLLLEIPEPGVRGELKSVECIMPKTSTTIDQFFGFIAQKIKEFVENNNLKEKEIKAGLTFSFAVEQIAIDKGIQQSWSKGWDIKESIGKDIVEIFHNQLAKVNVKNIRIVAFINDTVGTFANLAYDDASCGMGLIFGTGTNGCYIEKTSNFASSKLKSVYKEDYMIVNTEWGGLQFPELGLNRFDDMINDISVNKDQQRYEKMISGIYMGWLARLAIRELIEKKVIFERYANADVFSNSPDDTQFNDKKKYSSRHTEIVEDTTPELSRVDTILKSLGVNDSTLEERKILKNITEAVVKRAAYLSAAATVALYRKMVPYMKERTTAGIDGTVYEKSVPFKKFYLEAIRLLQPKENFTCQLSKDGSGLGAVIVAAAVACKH

[2] = biological target: T2, HXK-2 (Entamoeba dispar, UniProt O09488); test: as above; conditions: ATP; G6PDH-coupled, NADPH-formazan read-out
T2 construct: gene hxk2; native full-length enzyme in freeze-thaw lysate, resolved by IEF or starch gel
T2 sequence (O09488 1-445): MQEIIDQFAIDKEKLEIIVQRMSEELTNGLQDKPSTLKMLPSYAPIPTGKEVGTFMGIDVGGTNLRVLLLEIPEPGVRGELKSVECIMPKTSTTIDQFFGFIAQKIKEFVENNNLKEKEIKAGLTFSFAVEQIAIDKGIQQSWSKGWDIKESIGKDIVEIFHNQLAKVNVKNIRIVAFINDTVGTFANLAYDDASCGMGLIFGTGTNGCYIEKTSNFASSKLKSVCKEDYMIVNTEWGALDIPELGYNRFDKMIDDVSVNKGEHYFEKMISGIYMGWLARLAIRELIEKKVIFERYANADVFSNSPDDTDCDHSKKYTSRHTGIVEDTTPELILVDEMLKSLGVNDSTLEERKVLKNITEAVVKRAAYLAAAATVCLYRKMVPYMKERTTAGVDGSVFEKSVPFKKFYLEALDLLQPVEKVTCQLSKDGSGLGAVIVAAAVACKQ

[3] = biological target: T3, HXK-1 (Entamoeba histolytica, UniProt A0A8U0WP42); test: as above; conditions: ATP; G6PDH-coupled, NADPH-formazan read-out
T3 construct: gene EHI_098290; native full-length enzyme in freeze-thaw amoeba lysate, resolved by IEF or starch gel
T3 sequence (A0A8U0WP42 1-445): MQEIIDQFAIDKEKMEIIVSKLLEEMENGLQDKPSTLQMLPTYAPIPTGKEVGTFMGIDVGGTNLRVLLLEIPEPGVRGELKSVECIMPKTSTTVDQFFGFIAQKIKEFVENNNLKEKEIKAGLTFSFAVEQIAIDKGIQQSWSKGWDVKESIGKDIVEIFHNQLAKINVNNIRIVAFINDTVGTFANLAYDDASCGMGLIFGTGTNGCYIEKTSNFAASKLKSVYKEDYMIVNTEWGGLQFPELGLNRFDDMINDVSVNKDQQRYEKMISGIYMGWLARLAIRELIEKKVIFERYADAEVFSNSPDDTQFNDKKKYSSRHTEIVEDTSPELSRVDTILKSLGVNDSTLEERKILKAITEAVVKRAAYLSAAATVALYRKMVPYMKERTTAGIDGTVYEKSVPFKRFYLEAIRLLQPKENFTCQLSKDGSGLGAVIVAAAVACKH

[4] = biological target: T4, HXK-1 (Entamoeba nuttalli, UniProt C5NNG5); test: as above; conditions: ATP; G6PDH-coupled, NADPH-formazan read-out
T4 construct: native full-length enzyme in freeze-thaw lysate, resolved by IEF or starch gel
T4 sequence (C5NNG5 1-445): T3 sequence (A0A8U0WP42 1-445) with E13G, I153V, I168V

[5] = biological target: T5, HXK-2 (Entamoeba nuttalli, UniProt C5NNG6); test: as above; conditions: ATP; G6PDH-coupled, NADPH-formazan read-out
T5 construct: gene ENUP19_0206G0024; native full-length enzyme in freeze-thaw lysate, resolved by IEF or starch gel
T5 sequence (C5NNG6 1-445): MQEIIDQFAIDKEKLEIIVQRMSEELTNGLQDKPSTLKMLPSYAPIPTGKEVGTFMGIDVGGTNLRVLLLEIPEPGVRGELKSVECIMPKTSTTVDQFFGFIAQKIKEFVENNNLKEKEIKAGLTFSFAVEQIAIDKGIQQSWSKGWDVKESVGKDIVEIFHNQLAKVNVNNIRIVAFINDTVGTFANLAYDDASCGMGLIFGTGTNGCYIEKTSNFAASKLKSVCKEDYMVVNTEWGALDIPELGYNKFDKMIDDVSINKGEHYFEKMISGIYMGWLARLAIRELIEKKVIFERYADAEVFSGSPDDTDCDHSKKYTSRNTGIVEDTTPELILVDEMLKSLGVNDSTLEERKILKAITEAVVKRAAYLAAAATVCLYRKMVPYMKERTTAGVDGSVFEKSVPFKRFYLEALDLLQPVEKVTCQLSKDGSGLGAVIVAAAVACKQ

[6] = biological target: T6, HXK-2 (Entamoeba histolytica, UniProt A0A8U0WP47); test: as above; conditions: ATP; G6PDH-coupled, NADPH-formazan read-out
T6 construct: gene EHI_098560; native full-length enzyme in freeze-thaw lysate, resolved by IEF or starch gel
T6 sequence (A0A8U0WP47 1-445): T5 sequence (C5NNG6 1-445) with V153I, V168I, V232I, I354M

[7] = biological target: T1, HXK-1; test: in-gel mannokinase activity stain after IEF; conditions: ATP; coupled with MPI, GPI and G6PDH XV, or directly with G6PDH II
[8] = biological target: T2, HXK-2; test: in-gel mannokinase activity stain after IEF; conditions: ATP; coupled with MPI, GPI and G6PDH XV, or directly with G6PDH II
[9] = biological target: T4, HXK-1; test: in-gel mannokinase activity stain after IEF; conditions: ATP; coupled with MPI, GPI and G6PDH XV, or directly with G6PDH II
[10] = biological target: T5, HXK-2; test: in-gel mannokinase activity stain after IEF; conditions: ATP; coupled with MPI, GPI and G6PDH XV, or directly with G6PDH II
[11] = biological target: T3, HXK-1; test: in-gel mannokinase activity stain after IEF; conditions: ATP; coupled with MPI, GPI and G6PDH XV, or directly with G6PDH II
[12] = biological target: T6, HXK-2; test: in-gel mannokinase activity stain after IEF; conditions: ATP; coupled with MPI, GPI and G6PDH XV, or directly with G6PDH II

In the case of `OC[C@H]1OC(O)[C@H](O)[C@@H](O)[C@@H]1O` (stereo partly drawn) [glucose], the “in-gel glucokinase activity stain after IEF or starch gel” value (shortened to “in-gel glucokinase activity stain”) [1] is reported as “substrate specificity of the HXKs of the six strains of Entamoeba spp. to phosphorylated glucose”, the “in-gel glucokinase activity stain” value [2] is reported as “substrate specificity of the HXKs of the six strains of Entamoeba spp. to phosphorylated glucose” and the “in-gel glucokinase activity stain” value [3] is reported as “substrate specificity of the HXKs of the six strains of Entamoeba spp. to phosphorylated glucose”. The “in-gel glucokinase activity stain” value [4] was “substrate specificity of the HXKs of the six strains of Entamoeba spp. to phosphorylated glucose”, the “in-gel glucokinase activity stain” value [5] was “substrate specificity of the HXKs of the six strains of Entamoeba spp. to phosphorylated glucose” and the “in-gel glucokinase activity stain” value [6] was “substrate specificity of the HXKs of the six strains of Entamoeba spp. to phosphorylated glucose”.
`OC[C@H]1OC(O)[C@@H](O)[C@@H](O)[C@@H]1O` (stereo partly drawn) [mannose] was tested, and the “in-gel mannokinase activity stain after IEF” value [7] was “no differences in mannokinase activity were observed between the isoenzymes HXK-1 and HXK-2”, the “in-gel mannokinase activity stain after IEF” value [8] was “no differences in mannokinase activity were observed between the isoenzymes HXK-1 and HXK-2” and the “in-gel mannokinase activity stain after IEF” value [9] was “no differences in mannokinase activity were observed between the isoenzymes HXK-1 and HXK-2”. For the same molecule, the “in-gel mannokinase activity stain after IEF” value [10] was “no differences in mannokinase activity were observed between the isoenzymes HXK-1 and HXK-2”, the “in-gel mannokinase activity stain after IEF” value [11] was “no differences in mannokinase activity were observed between the isoenzymes HXK-1 and HXK-2” and the “in-gel mannokinase activity stain after IEF” value [12] was “no differences in mannokinase activity were observed between the isoenzymes HXK-1 and HXK-2”.
